Reference: article PMC9394284, “Discovery of Novel Dual Adenosine A2A and A1 Receptor Antagonists with 1H-Pyrazolo[3,4-d]pyrimidin-6-amine Core Scaffold as Anti-Parkinson’s Disease Agents” (Pharmaceuticals, 2022)

What was measured:
hA2A receptors = target: T1, hA2A receptors (Homo sapiens, UniProt P29274); test: radioligand binding to human A2A receptors, HEK-293 membranes
T1 construct: purchased PerkinElmer RBHA2AM
Procedure: The binding affinities of synthesized compounds to human A2A receptors (hA2AR) were measured by assessing competitive binding of ligands to radioligand […] using membrane preparations of human recombinant HEK-293 cells expressing human A2A receptors.
The radioligand-binding assays for adenosine receptors were performed at Eurofins Discovery Services (Panlabs, Taiwan). Briefly, stock solutions of the compounds were prepared in DMSO and further diluted with the incubation buffer to the desired concentration. Final DMSO concentrations in the assay were 1.0%. […] Nonspecific binding was estimated in the presence of 100 μM R(-)-PIA. Membranes were filtered and washed 3 times and the filters were counted to determine specifically bound [^3H]DPCPX. Chemical compounds were screened at 10 μM. […] Nonspecific binding was estimated in the presence of 50.0 μM NECA. […] Nonspecific binding was estimated in the presence of 100 μM NECA. Membranes were filtered and washed 3 times and the filters were counted to determine [^3H]MRS1754 specifically bound. […] Nonspecific binding was estimated in the presence of 1.0 μM IB-MECA.
IC50 values were determined by a nonlinear, least-squares regression analysis using MathIQ^TM (ID Business Solutions Ltd., Guildford, UK). […] The Hill coefficient (nH), which defines the slope of the competitive binding curve, was calculated using MathIQ^TM.

A2A adenosine receptor = A2A adenosine receptor (Homo sapiens, UniProt P29274); test: cyclic AMP HTRF functional assay, HEK-293 (A2A); type: cell-based; conditions: HEK-293 cells
Chain of A2A adenosine receptor (P29274 whole entry): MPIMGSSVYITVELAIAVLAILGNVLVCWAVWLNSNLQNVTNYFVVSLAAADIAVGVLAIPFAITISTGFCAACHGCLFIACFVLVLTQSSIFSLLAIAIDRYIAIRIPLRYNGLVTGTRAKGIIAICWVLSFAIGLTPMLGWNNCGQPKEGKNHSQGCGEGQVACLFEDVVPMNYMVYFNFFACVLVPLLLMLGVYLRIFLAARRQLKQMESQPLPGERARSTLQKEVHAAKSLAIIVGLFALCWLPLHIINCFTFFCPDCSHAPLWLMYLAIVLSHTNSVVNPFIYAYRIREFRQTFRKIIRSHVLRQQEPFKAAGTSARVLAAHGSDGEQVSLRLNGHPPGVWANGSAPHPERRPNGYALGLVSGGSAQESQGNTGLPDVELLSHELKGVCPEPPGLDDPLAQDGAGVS
Procedure: Next, the functional activity of 11o against A1 and A2A adenosine receptors was evaluated using c-AMP assay in CHO-K1 (A1) and HEK-293 (A2A) cells.
For functional studies, A1 and A2A receptor cyclic AMP HTRF (homogeneous time resolved fluorescence) assay was performed at EuroscreenFast (Charleroi, Belgium) using CHO-K1 (A1) and HEK293 (A2A) stable cell line with CPA (A1) and NECA (A2A) as reference agonist and DPCPX (A1) and ZM241385 (A2A) as reference antagonist compound.

[1] = metabolic stability in cryopreserved mouse hepatocytes
Procedure: (§1) Metabolic stability of 11o was determined in cryopreserved hepatocytes from mice, rats, dogs, monkeys and human according to the SOPs of Frontage Laboratories Inc. Briefly, cryopreserved hepatocytes for pre-clinical animals and for human (BioIVT, Westbury, NY, USA) were thawed in a 37 °C water bath with gentle shaking until ice had almost melted. The suspensions were immediately transferred to a centrifuge tube (50 mL) containing pre-warmed thawing media at 37 °C with gentle handshaking to prevent the cells from settling. Cell suspensions were centrifuged at 50× g and 4 °C for 5 min. The supernatant was discarded and the pellets were resuspended in prewarmed incubation media (5 mL) at 37 °C. The percentage of viable cells in the suspension was determined by Trypan blue staining method to ensure viability of ≥70 %. […] The samples were centrifuged and aliquots of the supernatant were analyzed for parent compounds by LC/MS/MS using suitable multiple reaction monitoring (MRM) transitions. […] The disappearance of 11o and midazolam was monitored by LC/MS/MS (MRM) analysis of the hepatocyte extracts at each time point. The peak area ratio of the analyte to internal standard was obtained for each sample and the rate of disappearance of 11o was assessed by comparing the peak area ratios at various time points to the peak area ratio obtained at t = 0. The t1/2 is obtained (using the linear portion of semi-log plot of the area ratio vs. time) and the CLint values determined using well-stirred model.

[2] = metabolic stability in cryopreserved human hepatocytes
Procedure: as §1

[3] = maximum tolerated dose, single oral administration, dog; conditions: both sexes, in vivo, single oral administration, male and female beagle dogs
Procedure: Rat and dog MTD studies were performed at Frontage Laboratories Inc following testing facility’s SOPs. All procedures described were reviewed and approved by the Institutional Animal Care and Use Committee (IACUC) at Frontage Laboratories Inc.
For dog MTD study, male and female beagle dogs (Canis familiaris) of 1.3 to 1.4 years of age were from Frontage Laboratories’ test facility stock colony, originally procured from Marshall BioResources (North Rose, NY, USA). The health status of the animals was reviewed by a staff veterinarian. Data collected on animals prior to release to study were maintained as testing facility records. Same dogs were used for each dose event. Animals received a single dose of 11o in 0.5% methyl cellulose via oral gavage starting from 50 mg/kg dose level in 5 mL/kg dose volume. Subsequent doses occurred 3 or 4 days following the previous dose and were increased based on findings from the previous dosing(s). The procedure continued until four dosing events occurred. Animals were fasted overnight prior to each dose administration with food provided approximately 4 h post-dose. Animals were observed once in the morning and once in the afternoon throughout the study for clinical observations. Body weights were measured on the day prior to dose administration. Data were collected and reported electronically using Provantis^TM (Instem LSS Ltd., Staffordshire, UK).

[4] = system: haloperidol-induced catalepsy; test: haloperidol-induced catalepsy in female rats (bar test); type: in vivo, Sprague Dawley rats
Procedure: Vehicle or varying amount of 11o (0.3, 1, 3, 10 mg/kg) was administered first, followed by IP injection of 1 mg/kg haloperidol 60 min later.
A total of 120 female Sprague Dawley rats (275~300 g) were purchased from Charles River Laboratories (Charles River, Senneville, QC, Canada) and maintained at Atuka, Inc. All animal studies were conducted at Atuka, Inc. according to CCAC guidelines and under IACUC-approved Animal Use Protocols (AUPs), with IACUC number 6606.0.3 for this study.
The catalepsy study incorporated 12 groups of rats. Ten rats were incorporated into each treatment group (total N = 120 rats). Treatments were divided over 3 consecutive treatment blocks and the order of treatments were randomized within each block and all treatments completed within that block before proceeding to the next. […] Catalepsy was assessed a further 60 min later (t = 120).
Behavior was evaluated in each animal by assessing performance on the bar test. Catalepsy was assessed 60 min following haloperidol administration (120 min following administration of vehicle, 11o or istradefylline). […] The time taken for the animal to remove both paws (decent latency) from the rod and place them back on the surface, in seconds was determined. The test was conducted in triplicate and the average of the three tests were calculated.

[5] = average of duplicate experiments
[6] = CD-1, mouse, cryopreserved hepatocytes in suspension
[7] = human, cryopreserved hepatocytes in suspension

T1 sequence (P29274 whole entry): as above

## Cc1cc(Cn2ncc3c(-c4cccc(C#N)c4F)nc(N)nc32)ccc1N [11o, 3-(6-Amino-1-(4-amino-3-methylbenzyl)-1H-pyrazolo[3,4-d]pyrimidin-4-yl)-2-fluorobenzonitrile]
hA2A receptors
  nH (Hill coefficient), A2A: 0.79
hA2A receptors; [5]
  IC50: 24 nM
  Ki: 13.3 nM
A2A adenosine receptor
  functional activity at A2A receptor: full antagonism
A2A adenosine receptor; read-out: IC50, A2A functional antagonism (c-AMP)
  IC50: 136 nM
[1]; [6]
  CLint scaled at 1 μM: 115 mL/min/kg
  half-life at 1 μM: 1.18 h
  hepatocyte CLint at 1 μM: 9.8 µL/min/1e6 cells
[1]; mouse hepatocytes, 1 μM 11o
  Intrinsic Clearance: 0.00977 mL/min/10^6 Cells
[2]; human hepatocytes, 1 μM 11o
  Extrapolated Clearance, CL: 9.58 mL/min/kg
  Intrinsic Clearance: 0.00377 mL/min/10^6 Cells
[2]; [7]
  half-life at 1 μM: 3.07 h
  hepatocyte CLint at 1 μM: 3.8 µL/min/1e6 cells
[2]; human, cryopreserved hepatocytes in suspension, Extrapolated Clearance, CL, human hepatocytes, 1 μM 11o
  CLint scaled at 1 μM: 9.6 mL/min/kg
[2]; human, hepatocytes
  CLint in human hepatocytes relative to midazolam: less than 40 % of midazolam
[3]
  MTD: > 400 mg/kg
[4]; 0.3, 1, 3, 10 mg/kg PO, maximum effect at 10 mg/kg, comparable to istradefylline 1 mg/kg
  reversal of haloperidol-induced catalepsy (latency to step down): dose-dependently reversed haloperidol-induced catalepsy
[4]; Rattus norvegicus, PO 60 min before haloperidol 1 mg/kg, read-out: graded ED50, reversal of haloperidol-induced catalepsy
  ED50: 3 to 10 mg/kg
